Test results: patent US10294290B2, “Polypeptides derived from calcitonin receptors and methods of use” (The Research Foundation For The State University of New York, priority 2010, dated 2019)
[ ]: non-standard residue; d: D form. pGlu = O=C1CC[C@@H](C(=O)O)N1

How the values were obtained:
[1] = tested on: immortalized human fetal osteoblast cell line, hFOB 1.19; assay: Bone matrix formation, Alizarin Red staining, differentiated osteoblasts; assay type: cell-based; settings: for calcium deposits (Alizarin dye, fluorescent images): 12.5 μM
Experimental: The effect of CRP on differentiated osteoblasts was analyzed in an immortalized human fetal osteoblast cell line, hFOB 1.19. hFOB cells were incubated for 48 hours in increasing concentrations of CRP (4.6 μM, 9.2 μM, 13.8 μM and 18.4 μM). Bone matrix formation was assayed using a Millipore Osteogenesis Quantitation kit as described above. Phase contrast and fluorescent images of the Alizarin Red stained cells were acquired using an Olympus-IMT microscope according to the manufacturer's (Millipore) specifications. […] Increased bone matrix deposition was also detectable by fluorescence microscopy. Non-amidated CRP had no effect on bone matrix formation.
The sequence specificity of the effect of CRP on bone matrix formation was evaluated using the scrambled peptide, {pGln}NFWQWWIQARKQ (SEQ ID NO:51), which was amidated at the C-terminus. hFOB cells were treated as described above with 18.4 μM of the scrambled peptide, and bone matrix formation was assayed with the Millipore Osteogenesis Quantitation kit as described above.
In cell culture, we also studied the effect of amino acid substitutions in CRP on the formation of bone matrix. hFOB cells were treated with human CRP (KRQWAQFKIQWNQR; SEQ ID NO:42) and, separately, mouse CRP (KRQWTQFKIQWSQR; SEQ ID NO:43) before staining with Alizarin dye to identify the matrix that is formed. Fluorescent images were acquired using an Olympus-IMP microsope.

[2] = tested on: ovariectomized (OVX) rats; assay: Micro-CT of cortical bone from femoral midshafts; assay type: in vivo, Sprague Dawley rats; settings: 15 μM (1 mL) intraperitoneal, five times per week for five weeks, vs vehicle, p<0.05 ANCOVA
Experimental: We performed a micro-CT analysis of cortical bone from the femoral midshafts of ovariectomized (OVX) rats treated with 50% DMSO (OVX Vehicle) or 15 μM rat CRP (OVX 15 μM) Sprague Dawley rats (n=12/group) were ovariectomized at 6 months of age and allowed to lose bone for one month prior to treatment. They were then administered vehicle or 15 μM CRP (1 mL), via intraperitoneal injection, five times per week for five weeks. The animals were then sacrificed and their femora were harvested. The femora were scanned using microCT (Scanco uCT40) and 1.8 mm-long mid-diaphyseal regions of interest were analyzed.

Substance: {pGln}NFWQWWIQARKQ ([pGlu]NFWQWWIQARKQ-NH2; SMILES CC[C@H](C)[C@H](NC(=O)[C@H](Cc1c[nH]c2ccccc12)NC(=O)[C@H](Cc1c[nH]c2ccccc12)NC(=O)[C@H](CCC(N)=O)NC(=O)[C@H](Cc1c[nH]c2ccccc12)NC(=O)[C@H](Cc1ccccc1)NC(=O)[C@H](CC(N)=O)NC(=O)[C@@H]1CCC(=O)N1)C(=O)N[C@@H](CCC(N)=O)C(=O)N[C@@H](C)C(=O)N[C@@H](CCCNC(=N)N)C(=O)N[C@@H](CCCCN)C(=O)N[C@@H](CCC(N)=O)C(N)=O) [scrambled peptide, scrambled control peptide, same amino acids as CRP in scrambled order, reference compound]
- bone matrix formation ([1]; 18.4 μM): did not induce bone matrix formation

Substance: rat CRP: rat calcitonin receptor-derived polypeptide (rat homologue, SEQ ID NO:47, shown in FIG. 2) (KRQWAQFKIQWSHRWGRR; listed as Rattus norvegicus)
- average periosteal surface [2]: significantly greater
- average periosteal volume [2]: significantly greater
- average polar moment of inertia [2]: significantly greater
- maximum principal moment of inertia [2]: significantly greater
- minimum principal moment of inertia [2]: significantly greater

Substance: KRQWAQFKIQWNQR (listed as Homo sapiens) [hCRP]
- calcium deposits (Alizarin dye, fluorescent images) [1]: produced calcium deposits

Substance: KRQWTQFKIQWSQR (listed as Mus sp.) [mCRP]
- calcium deposits (Alizarin dye, fluorescent images) [1]: produced calcium deposits
